According to patent publication US20250026746A1, “ENHANCERS OF PARTICULATE GUANYLYL CYCLASE RECEPTOR A” (Mayo Foundation for Medical Education and Research, priority 2021, published 2025):

Columns and labels:
[1] = tested on: Primary Human cardiomyocytes; experiment: cGMP levels (ELISA) in human cardiomyocytes; assay type: cell-based; conditions: acetate salt, ANP (10^-10 M); for cGMP generation in HCMs in the presence of ANP: 1 or 10 μM, vs vehicle
Method: Primary Human cardiomyocytes (HCMs: Catalog No. 6200, Lot No. 6288, PromoCell) were maintained and subcultured according to the manufacturer's protocols. Passage 5 was used in the study. Treatment buffer, Compound 3, Compound 1 and Compound 2 acetate salt, ANP, and vehicle were prepared as described above. Briefly, 5×10^5 of cells/well were grown in 6-well plates until 80 to 90% confluency and were then pretreated with vehicle or Compound 3, Compound 1 or Compound 2 at doses of 1 or 10 μM for 5 min at 37° C., then cells were treated with ANP (10^-10 M) for an additional 10 min at 37° C. Afterward, all cells were washed with PBS once and lysed with 0.1 M HCl at room temperature, and intracellular cGMP levels were measured in the lysate using a commercial cGMP ELISA kit (Enzo Life Sciences) with the acetylation method as instructed by the manufacturer.

human GC-A = biological target: T1, human GC-A (Homo sapiens, UniProt P16066); experiment: EC50 and Emax cGMP determination, HTRF, human GC-A overexpressing HEK293 cells; assay type: cell-based; conditions: HEK293 GC-A cells
T1 construct: host or cells: HEK293
T1 sequence (P16066 33-1061): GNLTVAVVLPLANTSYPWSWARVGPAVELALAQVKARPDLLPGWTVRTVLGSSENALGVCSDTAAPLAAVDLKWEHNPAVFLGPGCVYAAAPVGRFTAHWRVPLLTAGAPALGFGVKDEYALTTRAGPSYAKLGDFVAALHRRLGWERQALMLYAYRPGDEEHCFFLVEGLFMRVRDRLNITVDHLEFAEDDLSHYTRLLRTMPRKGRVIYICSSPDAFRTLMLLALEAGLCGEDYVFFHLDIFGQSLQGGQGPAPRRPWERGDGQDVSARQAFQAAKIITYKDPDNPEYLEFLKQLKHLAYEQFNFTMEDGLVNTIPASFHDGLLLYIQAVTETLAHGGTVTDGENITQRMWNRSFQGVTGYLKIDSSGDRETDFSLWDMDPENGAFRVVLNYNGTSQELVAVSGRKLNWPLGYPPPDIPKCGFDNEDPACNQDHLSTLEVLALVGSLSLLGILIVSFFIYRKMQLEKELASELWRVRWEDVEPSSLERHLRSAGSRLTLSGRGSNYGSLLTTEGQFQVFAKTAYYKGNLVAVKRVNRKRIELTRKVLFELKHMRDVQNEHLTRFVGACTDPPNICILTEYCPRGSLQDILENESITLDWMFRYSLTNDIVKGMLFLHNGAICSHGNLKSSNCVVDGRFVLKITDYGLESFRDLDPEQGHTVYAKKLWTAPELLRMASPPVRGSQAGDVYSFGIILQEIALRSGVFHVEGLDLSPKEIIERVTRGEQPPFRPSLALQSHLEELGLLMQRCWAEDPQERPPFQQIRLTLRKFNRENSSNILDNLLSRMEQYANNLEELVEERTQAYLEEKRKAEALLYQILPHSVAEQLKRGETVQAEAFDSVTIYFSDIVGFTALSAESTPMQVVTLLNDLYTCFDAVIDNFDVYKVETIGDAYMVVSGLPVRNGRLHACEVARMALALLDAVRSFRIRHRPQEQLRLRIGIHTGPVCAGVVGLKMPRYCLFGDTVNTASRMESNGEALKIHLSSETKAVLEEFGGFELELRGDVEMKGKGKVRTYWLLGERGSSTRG
T1 sequence (P01160 124-151 partner limits assumed): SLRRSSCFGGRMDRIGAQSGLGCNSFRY
Method: Test compounds were evaluated for potentiation of cGMP in human GC-A overexpressing HEK293 cells (Cardiorenal Research Laboratory, Mayo Clinic). Test compounds at 10 mM DMSO stock concentration were dispensed into 384 well small volume white plates using Tecan D300e digital dispenser starting at 5 μM or 40 μM concentration and diluted 2-fold for 10-point concentration response. Wells were backfilled with DMSO such that the final concentration of DMSO in all wells was maintained at 0.3% DMSO. Atrial natriuretic peptide (ANP, Phoenix Pharmaceuticals) ANP was prepared as working stock aliquots at 5 μM in phosphate-buffered solution (PBS) with 0.1% bovine serum albumin (BSA) and diluted to […] in buffer plus Tween20 at 0.3% and added to plates to a final concentration equivalent to EC20 ANP in the cGMP assay. GC-A cells in suspension ([…]) in OptiMem media (ThermoFisher 11058-021) supplemented with 2% fetal bovine serum were plated at 1×10^6 cells/mL and assay plates were spun at 1000 rpm for 30 sec and incubated at room temperature for 30 min. GC-A-mediated activation of cGMP production was measured using cGMP CisBio detection homogenous time-resolved florescence (HTRF) competition assay using labeled-cGMP in human GC-A-overexpressing HEK293 cells. 5 μL of d-2 acceptor was dispensed into each well followed by addition of 5 μL of Anti-cGMP Eu-Cryptate antibody donor and plates were spun at 1000 rpm for 30 sec and incubated in the dark at room temperature for 1 hr. HTRF florescence was read on the ClarioStar microplate reader (BMG). A 100% response was determined from wells in the absence of compound and presence of saturating concentration of ANP (10 nM), and 0) % response was determined from wells containing an EC20 concentration of ANP determined for each new lot of ANP. Concentration-response curves for test compounds were analyzed by […] analysis using GraphPad software to determine EC50 and Emax values.

Row | Compound | cGMP generation in HCMs in the presence of ANP [1] | cGMP generation in HCMs, Compound 1 compared with Compound 2 ([1]; both doses) | potency in potentiating ANP-mediated cGMP generation (comparison between forms/enantiomers) (human GC-A)
1 | CN(C)CCN1CCC[C@H](C(=O)Nc2nc3c(F)cc(F)cc3s2)C1 [Compound 1, (S)-N-(4,6-difluorobenzo[d]thiazol-2-yl)-1-(2-(dimethylamino)ethyl) piperidine-3-carboxamide] | increased cGMP levels in a dose dependent manner | more potent | more potent
2 | CN(C)CCN1CCC[C@@H](C(=O)Nc2nc3c(F)cc(F)cc3s2)C1 [Compound 2, (R)-N-(4,6-difluorobenzo[d]thiazol-2-yl)-1-(2-(dimethylamino)ethyl) piperidine-3-carboxamide] | increased cGMP levels in a dose dependent manner | – | –
